Test results published in patent publication US20260327214A1, “1,3,4-OXADIAZOLE DERIVATIVE COMPOUNDS AS HISTONE DEACETYLASE 6 INHIBITOR, AND USES THEREOF” (CHONG KUN DANG PHARMACEUTICAL CORP., priority 2022, published 2026).

Columns and labels:
[1] = target: T1, human recombinant HDAC1 (Homo sapiens, UniProt Q13547); experiment: HDAC1 enzyme activity inhibition test (HDAC Fluorometric Drug Discovery Kit); format: biochemical; details: 30° C., 60 minutes, 10 μM substrate
T1 construct: purchased Enzo Life Science BML-SE456
T1 sequence (Q13547 whole entry): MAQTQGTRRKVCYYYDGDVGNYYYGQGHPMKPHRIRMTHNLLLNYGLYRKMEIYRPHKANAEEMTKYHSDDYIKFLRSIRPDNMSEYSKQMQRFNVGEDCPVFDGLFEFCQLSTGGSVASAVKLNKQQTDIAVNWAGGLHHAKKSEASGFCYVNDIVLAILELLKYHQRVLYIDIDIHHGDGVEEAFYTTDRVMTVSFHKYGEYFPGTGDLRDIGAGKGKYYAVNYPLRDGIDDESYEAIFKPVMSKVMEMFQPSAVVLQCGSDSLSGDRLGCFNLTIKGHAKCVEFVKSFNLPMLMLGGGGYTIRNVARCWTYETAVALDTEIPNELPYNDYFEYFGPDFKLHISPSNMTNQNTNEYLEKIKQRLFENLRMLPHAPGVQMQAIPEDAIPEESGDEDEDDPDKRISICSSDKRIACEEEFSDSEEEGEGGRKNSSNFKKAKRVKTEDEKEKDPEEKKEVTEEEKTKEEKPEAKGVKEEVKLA
Outline: (§1)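 Recombinant human HDAC1 or HDAC6 (0.3 μg) reacted with 10 μM Fluor de Lys SIRT1 substrate and 5-fold diluted compound for 60 min at 30 °C. Developer II added 30 min; fluorescence read at Ex 360/Em 460 and IC50 calculated.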

[2] = target: T2, human recombinant HDAC6 (Homo sapiens, UniProt Q9UBN7); experiment: HDAC6 enzyme activity inhibition test (HDAC Fluorometric Drug Discovery Kit); format: biochemical; details: for HDAC6 selectivity (fold): HDAC6 over HDAC1; for IC50: human recombinant HDAC6, same protocol as HDAC1
T2 construct: purchased Calbiochem 382180
T2 sequence (Q9UBN7 1-1215): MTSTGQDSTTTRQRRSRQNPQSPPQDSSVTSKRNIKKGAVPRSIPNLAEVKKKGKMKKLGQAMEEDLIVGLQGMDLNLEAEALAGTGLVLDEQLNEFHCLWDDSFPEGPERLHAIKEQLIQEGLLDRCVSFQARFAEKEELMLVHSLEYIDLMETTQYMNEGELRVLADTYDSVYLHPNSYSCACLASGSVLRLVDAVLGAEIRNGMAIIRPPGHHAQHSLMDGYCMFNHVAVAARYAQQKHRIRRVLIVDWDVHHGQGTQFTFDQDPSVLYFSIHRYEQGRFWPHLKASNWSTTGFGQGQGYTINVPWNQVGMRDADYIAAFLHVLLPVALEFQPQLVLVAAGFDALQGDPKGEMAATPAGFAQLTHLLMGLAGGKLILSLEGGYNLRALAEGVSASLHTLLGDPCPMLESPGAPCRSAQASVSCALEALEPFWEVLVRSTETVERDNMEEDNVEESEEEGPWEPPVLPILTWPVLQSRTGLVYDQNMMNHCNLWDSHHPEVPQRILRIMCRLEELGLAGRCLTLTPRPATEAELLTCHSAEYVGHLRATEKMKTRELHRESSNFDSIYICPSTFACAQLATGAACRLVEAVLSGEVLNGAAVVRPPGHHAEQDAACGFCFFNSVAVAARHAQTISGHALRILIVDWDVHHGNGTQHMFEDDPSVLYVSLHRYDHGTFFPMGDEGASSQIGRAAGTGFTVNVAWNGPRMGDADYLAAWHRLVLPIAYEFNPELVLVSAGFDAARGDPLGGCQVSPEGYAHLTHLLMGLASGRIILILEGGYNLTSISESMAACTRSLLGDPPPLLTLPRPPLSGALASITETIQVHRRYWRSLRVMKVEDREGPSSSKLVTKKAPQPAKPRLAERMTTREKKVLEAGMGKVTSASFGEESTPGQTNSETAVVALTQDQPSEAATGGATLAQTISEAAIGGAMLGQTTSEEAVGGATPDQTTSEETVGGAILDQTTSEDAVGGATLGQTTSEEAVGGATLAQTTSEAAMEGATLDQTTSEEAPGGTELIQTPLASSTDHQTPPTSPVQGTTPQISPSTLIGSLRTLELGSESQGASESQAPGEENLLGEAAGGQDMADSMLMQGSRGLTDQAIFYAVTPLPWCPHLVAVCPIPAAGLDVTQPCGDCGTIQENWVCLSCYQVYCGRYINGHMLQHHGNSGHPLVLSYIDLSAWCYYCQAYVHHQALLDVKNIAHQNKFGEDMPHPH
Outline: as §1

Compound | IC50 [1] | HDAC6 selectivity (fold) [2] | IC50 [2]
FC(F)c1nnc(-c2ccc(Cn3nc(-c4ccc(CN5CC[C@@H](F)C5)s4)oc3=S)nc2)o1 [Compound 124, 3-[[5-[5-(difluoromethyl)-1,3,4-oxadiazol-2-yl]-2-pyridyl]methyl]-5-[5-[[(3R)-3-fluoropyrrolidin-1-yl]methyl]-2-thienyl]-1,3,4-oxadiazol-2-thione] | > 50 µM | 491 fold | 0.102 µM
CCN(CC)Cc1ccc(-c2nn(Cc3ccc(-c4nnc(C(F)F)o4)cn3)c(=S)o2)s1 [Compound 122, 5-[5-(diethylaminomethyl)-2-thienyl]-3-[[5-[5-(difluoromethyl)-1,3,4-oxadiazol-2-yl]-2-pyridyl]methyl]-1,3,4-oxadiazol-2-thione] | > 50 µM | 453 fold | 0.11 µM
O=c1sc(-c2cccc(C3CCN(C4COC4)CC3)c2F)nn1Cc1ccc(-c2nnc(C(F)F)o2)cn1 [Compound 58, 3-[[5-[5-(difluoromethyl)-1,3,4-oxadiazol-2-yl]-2-pyridyl]methyl]-5-[2-fluoro-3-[1-(oxetane-3-yl)-4-piperidyl]phenyl]-1,3,4-thiadiazol-2-one] | > 50 µM | 643 fold | 0.0778 µM
FC(F)c1nnc(-c2ccc(Cn3nc(-c4ccc(CN5CCOCC5)cc4)oc3=S)nc2)o1 [Compound 95, 3-[[5-[5-(difluoromethyl)-1,3,4-oxadiazol-2-yl]-2-pyridyl]methyl]-5-[4-(morpholinomethyl)phenyl]-1,3,4-oxadiazol-2-thione] | > 50 µM | 574 fold | 0.0871 µM
O=c1oc(-c2ccc3cccnc3c2)nn1Cc1ccc(-c2nnc(C(F)F)o2)cn1 [Compound 17, 3-[[5-[5-(difluoromethyl)-1,3,4-oxadiazol-2-yl]-2-pyridyl]methyl]-5-(7-quinolyl)-1,3,4-oxadiazol-2-one] | > 50 µM | 1089 fold | 0.0459 µM
O=c1oc(-c2cccc(N3CCN(C4COC4)CC3)c2)nn1Cc1ccc(-c2nnc(C(F)F)o2)cn1 [Compound 40, 3-[[5-[5-(difluoromethyl)-1,3,4-oxadiazol-2-yl]-2-pyridyl]methyl]-5-[3-[4-(oxetane-3-yl)piperazin-1-yl]phenyl]-1,3,4-oxadiazol-2-one] | > 50 µM | 652 fold | 0.0767 µM
CNCc1ccc(-c2nn(Cc3ccc(-c4nnc(C(F)F)o4)cn3)c(=S)o2)cc1 [Compound 92, 3-[[5-[5-(difluoromethyl)-1,3,4-oxadiazol-2-yl]-2-pyridyl]methyl]-5-[4-(methylaminomethyl)phenyl]-1,3,4-oxadiazol-2-thione] | > 50 µM | 3185 fold | 0.0157 µM
O=c1oc(-c2ccccc2F)nn1Cc1ccc(-c2nnc(C(F)F)o2)cn1 [Compound 15, 3-[[5-[5-(difluoromethyl)-1,3,4-oxadiazol-2-yl]-2-pyridyl]methyl]-5-(2-fluorophenyl)-1,3,4-oxadiazol-2-one] | > 50 µM | 524 fold | 0.0955 µM
CN1CCc2ccc(-c3nn(Cc4ccc(-c5nnc(C(F)F)o5)cn4)c(=O)o3)cc2C1 [Compound 12, 3-[[5-[5-(difluoromethyl)-1,3,4-oxadiazol-2-yl]-2-pyridyl]methyl]-5-(2-methyl-3,4-dihydro-1H-isoquinolin-7-yl)-1,3,4-oxadiazol-2-one] | > 50 µM | 607 fold | 0.0824 µM
CN(C)Cc1ccc(-c2nn(Cc3ccc(-c4nnc(C(F)F)o4)cn3)c(=S)o2)cc1 [Compound 91, 3-[[5-[5-(difluoromethyl)-1,3,4-oxadiazol-2-yl]-2-pyridyl]methyl]-5-[4-[(dimethylamino)methyl]phenyl]-1,3,4-oxadiazol-2-thione] | > 50 µM | 1832 fold | 0.0273 µM
Cn1ccc2cc(-c3nn(Cc4ccc(-c5nnc(C(F)F)o5)cn4)c(=O)o3)cnc21 [Compound 32, 3-[[5-[5-(difluoromethyl)-1,3,4-oxadiazol-2-yl]-2-pyridyl]methyl]-5-(1-methylpyrrolo[2,3-b]pyridin-5-yl)-1,3,4-oxadiazol-2-one] | > 50 µM | 774 fold | 0.0646 µM
Cn1ccc2ccc(-c3nn(Cc4ccc(-c5nnc(C(F)F)o5)cn4)c(=O)o3)cc21 [Compound 31, 3-[[5-[5-(difluoromethyl)-1,3,4-oxadiazol-2-yl]-2-pyridyl]methyl]-5-(1-methylindol-6-yl)-1,3,4-oxadiazol-2-one] | > 50 µM | 643 fold | 0.0778 µM
CC1CCN(Cc2cccc(-c3nn(Cc4ccc(-c5nnc(C(F)F)o5)cn4)c(=S)o3)c2)CC1 [Compound 88, 3-[[5-[5-(difluoromethyl)-1,3,4-oxadiazol-2-yl]-2-pyridyl]methyl]-5-[3-[(4-methyl-1-piperidyl)methyl]phenyl]-1,3,4-oxadiazol-2-thione] | > 50 µM | 449 fold | 0.111 µM

The next lines start with the values.

IC50 [1] | HDAC6 selectivity (fold) [2] | IC50 [2] | Compound
> 50 µM | 980 fold | 0.051 µM | Fc1cc(-c2nnc(C(F)F)o2)cnc1Cn1nc(-c2ccc(CN3CCCCC3)cc2)oc1=S [Compound 112, 3-[[5-[5-(difluoromethyl)-1,3,4-oxadiazol-2-yl]-3-fluoro-2-pyridyl]methyl]-5-[4-(1-piperidylmethyl)phenyl]-1,3,4-oxadiazol-2-thione]
> 50 µM | 457 fold | 0.109 µM | CCN(CC)Cc1ccc(-c2nn(Cc3ncc(-c4nnc(C(F)F)o4)cc3F)c(=S)o2)s1 [Compound 129, 5-[5-(diethylaminomethyl)-2-thienyl]-3-[[5-[5-(difluoromethyl)-1,3,4-oxadiazol-2-yl]-3-fluoro-2-pyridyl]methyl]-1,3,4-oxadiazol-2-thione]
> 50 µM | 642 fold | 0.0779 µM | CC(C)N1CCN(c2ccc(-c3nn(Cc4ccc(-c5nnc(C(F)F)o5)cn4)c(=O)o3)c(F)c2)CC1 [Compound 25, 3-[[5-[5-(difluoromethyl)-1,3,4-oxadiazol-2-yl]-2-pyridyl]methyl]-5-[2-fluoro-4-(4-isopropylpiperazin-1-yl)phenyl]-1,3,4-oxadiazol-2-one]
> 50 µM | 540 fold | 0.0926 µM | Cc1ncc(-c2nn(Cc3ncc(-c4nnc(C(F)F)o4)cc3F)c(=S)o2)s1 [Compound 61, 3-[[5-[5-(difluoromethyl)-1,3,4-oxadiazol-2-yl]-3-fluoro-2-pyridyl]methyl]-5-(2-methylthiazol-5-yl)-1,3,4-oxadiazol-2-thione]
> 50 µM | 1171 fold | 0.0427 µM | FC(F)c1nnc(-c2ccc(Cn3nc(-c4ccccn4)oc3=S)nc2)o1 [Compound 46, 3-[[5-[5-(difluoromethyl)-1,3,4-oxadiazol-2-yl]-2-pyridyl]methyl]-5-(2-pyridyl)-1,3,4-oxadiazol-2-thione]
> 50 µM | 1163 fold | 0.043 µM | CC(C)N1CCN(c2cccc(-c3nn(Cc4ncc(-c5nnc(C(F)F)o5)cc4F)c(=S)o3)n2)CC1 [Compound 104, 3-[[5-[5-(difluoromethyl)-1,3,4-oxadiazol-2-yl]-3-fluoro-2-pyridyl]methyl]-5-[6-(4-isopropylpiperazin-1-yl)-2-pyridyl]-1,3,4-oxadiazol-2-thione]
